{"source": "patent US20100041642A1", "about": "“UREA INHIBITORS OF MAP KINASES” (LOCUS PHARMACEUTICALS, INC., priority 2008, published 2010)", "data": [{"molecular_target": "p38 (Homo sapiens, UniProt Q16539)", "sequence (Q16539 whole entry, the tested form may be a part)": "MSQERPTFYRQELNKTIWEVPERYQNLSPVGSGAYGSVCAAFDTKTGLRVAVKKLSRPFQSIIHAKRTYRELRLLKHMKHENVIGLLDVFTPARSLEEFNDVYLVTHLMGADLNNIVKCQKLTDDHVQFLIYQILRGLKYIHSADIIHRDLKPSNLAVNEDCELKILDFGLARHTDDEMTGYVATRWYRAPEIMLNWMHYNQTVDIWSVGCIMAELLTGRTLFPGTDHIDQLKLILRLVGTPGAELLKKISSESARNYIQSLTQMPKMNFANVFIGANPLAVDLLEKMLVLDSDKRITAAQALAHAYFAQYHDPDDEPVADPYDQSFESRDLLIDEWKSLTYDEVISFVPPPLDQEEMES", "assay": "Protein Kinase Assay (33P incorporation from γ-[33P]ATP into GST-ATF-2)", "assay_type": "biochemical", "conditions": "2 nM p38, preincubated 20 min at 30° C.; 10 uM cold ATP, 2 uM GST-ATF2, 70 min; read-out: ACT. (Activity), IC50 category in Protein Kinase Assay", "how_it_was_run": "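Compounds preincubated 20 min at 30 °C with 2 nM p38; reaction started with 2 uM GST-ATF-2 (aa 19-96) and 10 uM ATP plus γ-[33P]ATP, pH 7.5, 70 min at 30 °C, 2% DMSO. Phosphoric acid stop; 33P-labelled substrate captured on phosphocellulose and counted by scintillation.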", "units": {"IC50": "nM"}, "values": [{"smiles": "Cc1ccc(NC(=O)Nc2sc(C(C)(C)C)cc2C(=O)N2CCNC(=O)C2(C)C)cc1-c1ccc(NCC(C)C)nc1", "note": "[1-(5-tert-butyl-3-(2,2-dimethyl-3-oxopiperazine-1-carbonyl)thiophen-2-yl)-3-(3-(6-(isobutylamino)pyridin-3-yl)-4-methylphenyl)urea]", "IC50": "< 100"}, {"smiles": "CC(=O)c1ccc(-c2cc(NC(=O)Nc3sc(C(C)(C)C)cc3C(=O)N3CCNC(=O)C3(C)C)ccc2C)cn1", "note": "[1-(5-tert-butyl-3-(2,2-dimethyl-3-oxopiperazine-1-carbonyl)thiophen-2-yl)-3-(3-(6-ethanoylpyridin-3-yl)-4-methylphenyl)urea]", "IC50": "< 100"}, {"smiles": "CCc1ccc(-c2cc(NC(=O)Nc3sc(C(C)(C)C)cc3C(=O)N3CCNC(=O)C3(C)C)ccc2C)cn1", "note": "[1-(5-tert-butyl-3-(2,2-dimethyl-3-oxopiperazine-1-carbonyl)thiophen-2-yl)-3-(3-(6-ethylpyridin-3-yl)-4-methylphenyl)urea]", "IC50": "< 100"}, {"smiles": "CCc1ccc(-c2cc(NC(=O)Nc3sc(C(C)(C)C)cc3C(=O)N3CCNC(=O)C3(C)C)cc(F)c2C)cn1", "note": "[1-(5-tert-butyl-3-(2,2-dimethyl-3-oxopiperazine-1-carbonyl)thiophen-2-yl)-3-(3-(6-ethylpyridin-3-yl)-5-fluoro-4-methylphenyl)urea]", "IC50": "< 100"}, {"smiles": "C#Cc1ccc(-c2cc(NC(=O)Nc3sc(C(C)(C)C)cc3C(=O)N3CCNC(=O)C3(C)C)ccc2C)cn1", "note": "[1-(5-tert-butyl-3-(2,2-dimethyl-3-oxopiperazine-1-carbonyl)thiophen-2-yl)-3-(3-(6-ethynylpyridin-3-yl)-4-methylphenyl)urea]", "IC50": "< 100"}, {"smiles": "Cc1ccc(NC(=O)Nc2sc(C(C)(C)C)cc2C(=O)N2CCNC(=O)C2(C)C)cc1-c1ccc(F)nc1", "note": "[1-(5-tert-butyl-3-(2,2-dimethyl-3-oxopiperazine-1-carbonyl)thiophen-2-yl)-3-(3-(6-fluoropyridin-3-yl)-4-methylphenyl)urea]", "IC50": "< 100"}, {"smiles": "Cc1ccc(NC(=O)Nc2sc(C(C)(C)C)cc2C(=O)N2CCNC(=O)C2(C)C)cc1-c1ccc(C(C)C)nc1", "note": "[1-(5-tert-butyl-3-(2,2-dimethyl-3-oxopiperazine-1-carbonyl)thiophen-2-yl)-3-(3-(6-isopropylpyridin-3-yl)-4-methylphenyl)urea]", "IC50": "< 100"}, {"smiles": "COc1ccc(-c2cc(NC(=O)Nc3sc(C(C)(C)C)cc3C(=O)N3CCNC(=O)C3(C)C)ccc2C)cn1", "note": "[1-(5-tert-butyl-3-(2,2-dimethyl-3-oxopiperazine-1-carbonyl)thiophen-2-yl)-3-(3-(6-methoxypyridin-3-yl)-4-methylphenyl)urea]", "IC50": "< 100"}, {"smiles": "COc1ccc(-c2cc(C)cc(NC(=O)Nc3sc(C(C)(C)C)cc3C(=O)N3CCNC(=O)C3(C)C)c2)cn1", "note": "[1-(5-tert-butyl-3-(2,2-dimethyl-3-oxopiperazine-1-carbonyl)thiophen-2-yl)-3-(3-(6-methoxypyridin-3-yl)-5-methylphenyl)urea]", "IC50": "< 100"}, {"smiles": "CC(C)(C)c1cc(C(=O)N2CCNC(=O)C2(C)C)c(NC(=O)Nc2cccc(-c3cnco3)c2)s1", "note": "[1-(5-tert-butyl-3-(2,2-dimethyl-3-oxopiperazine-1-carbonyl)thiophen-2-yl)-3-(3-(oxazol-5-yl)phenyl)urea]", "IC50": "< 100"}, {"smiles": "CC(C)(C)c1cc(C(=O)N2CCNC(=O)C2(C)C)c(NC(=O)Nc2cccc(-c3cccnc3)c2)s1", "note": "[1-(5-tert-butyl-3-(2,2-dimethyl-3-oxopiperazine-1-carbonyl)thiophen-2-yl)-3-(3-(pyridin-3-yl)phenyl)urea]", "IC50": "< 100"}, {"smiles": "CC(C)(C)c1cc(C(=O)N2CCNC(=O)C2(C)C)c(NC(=O)Nc2cccc(-c3ccncc3)c2)s1", "note": "[1-(5-tert-butyl-3-(2,2-dimethyl-3-oxopiperazine-1-carbonyl)thiophen-2-yl)-3-(3-(pyridin-4-yl)phenyl)urea]", "IC50": "< 100"}, {"smiles": "Cc1ccc(NC(=O)Nc2sc(C(C)(C)C)cc2C(=O)N2CCNC(=O)C2(C)C)cc1C#N", "note": "[1-(5-tert-butyl-3-(2,2-dimethyl-3-oxopiperazine-1-carbonyl)thiophen-2-yl)-3-(3-cyano-4-methylphenyl)urea]", "IC50": "< 100"}, {"smiles": "C#Cc1cc(NC(=O)Nc2sc(C(C)(C)C)cc2C(=O)N2CCNC(=O)C2(C)C)ccc1C", "note": "[1-(5-tert-butyl-3-(2,2-dimethyl-3-oxopiperazine-1-carbonyl)thiophen-2-yl)-3-(3-ethynyl-4-methylphenyl)urea]", "IC50": "< 100"}, {"smiles": "COc1ccc(-c2cc(NC(=O)Nc3sc(C(C)(C)C)cc3C(=O)N3CCNC(=O)C3(C)C)cc(F)c2C)cn1", "note": "[1-(5-tert-butyl-3-(2,2-dimethyl-3-oxopiperazine-1-carbonyl)thiophen-2-yl)-3-(3-fluoro-5-(6-methoxypyridin-3-yl)-4-methylphenyl)urea]", "IC50": "< 100"}, {"smiles": "CC(C)(C)c1cc(C(=O)N2CCNC(=O)C2(C)C)c(NC(=O)Nc2cccc(N3CCOCC3)c2)s1", "note": "[1-(5-tert-butyl-3-(2,2-dimethyl-3-oxopiperazine-1-carbonyl)thiophen-2-yl)-3-(3-morpholinophenyl)urea]", "IC50": "< 10000"}, {"smiles": "CC(C)(C)c1cc(C(=O)N2CCNC(=O)C2(C)C)c(NC(=O)Nc2ccc(F)c(-c3ccc(OCCN4CCOCC4)nc3)c2)s1", "note": "[1-(5-tert-butyl-3-(2,2-dimethyl-3-oxopiperazine-1-carbonyl)thiophen-2-yl)-3-(4-fluoro-3-(6-(2-morpholinoethoxy)pyridin-3-yl)phenyl)urea]", "IC50": "< 100"}, {"smiles": "COc1ccc(NC(=O)Nc2sc(C(C)(C)C)cc2C(=O)N2CCNC(=O)C2(C)C)c(C)c1-c1ccncc1", "note": "[1-(5-tert-butyl-3-(2,2-dimethyl-3-oxopiperazine-1-carbonyl)thiophen-2-yl)-3-(4-methoxy-2-methyl-3-(pyridin-4-yl)phenyl)urea]", "IC50": "< 100"}, {"smiles": "COc1ccc(NC(=O)Nc2sc(C(C)(C)C)cc2C(=O)N2CCNC(=O)C2(C)C)cc1-c1ccncc1", "note": "[1-(5-tert-butyl-3-(2,2-dimethyl-3-oxopiperazine-1-carbonyl)thiophen-2-yl)-3-(4-methoxy-3-(pyridin-4-yl)phenyl)urea]", "IC50": "< 100"}, {"smiles": "Cc1ccc(NC(=O)Nc2sc(C(C)(C)C)cc2C(=O)N2CCNC(=O)C2(C)C)cc1C#C[Si](C)(C)C", "note": "[1-(5-tert-butyl-3-(2,2-dimethyl-3-oxopiperazine-1-carbonyl)thiophen-2-yl)-3-(4-methyl-3-(2-(trimethylsilyl)ethynyl)phenyl)urea]", "IC50": "< 100"}, {"smiles": "Cc1ccc(NC(=O)Nc2sc(C(C)(C)C)cc2C(=O)N2CCNC(=O)C2(C)C)cc1-c1cnc(N2CCOCC2)nc1", "note": "[1-(5-tert-butyl-3-(2,2-dimethyl-3-oxopiperazine-1-carbonyl)thiophen-2-yl)-3-(4-methyl-3-(2-morpholinopyrimidin-5-yl)phenyl)urea]", "IC50": "< 100"}, {"smiles": "Cc1ccc(NC(=O)Nc2sc(C(C)(C)C)cc2C(=O)N2CCNC(=O)C2(C)C)cc1C#CCOCCN1CCOCC1", "note": "[1-(5-tert-butyl-3-(2,2-dimethyl-3-oxopiperazine-1-carbonyl)thiophen-2-yl)-3-(4-methyl-3-(3-(2-morpholinoethoxy)prop-1-ynyl)phenyl)urea]", "IC50": "< 100"}, {"smiles": "Cc1ccc(NC(=O)Nc2sc(C(C)(C)C)cc2C(=O)N2CCNC(=O)C2(C)C)cc1C#CCN1CCN(C)CC1", "note": "[1-(5-tert-butyl-3-(2,2-dimethyl-3-oxopiperazine-1-carbonyl)thiophen-2-yl)-3-(4-methyl-3-(3-(4-methylpiperazin-1-yl)prop-1-ynyl)phenyl)urea]", "IC50": "< 100"}, {"smiles": "Cc1ccc(NC(=O)Nc2sc(C(C)(C)C)cc2C(=O)N2CCNC(=O)C2(C)C)cc1C#CCOC1CCOCC1", "note": "[1-(5-tert-butyl-3-(2,2-dimethyl-3-oxopiperazine-1-carbonyl)thiophen-2-yl)-3-(4-methyl-3-(3-(tetrahydro-2H-pyran-4-yloxy)prop-1-ynyl)phenyl)urea]", "IC50": "< 100"}, {"smiles": "Cc1ccc(NC(=O)Nc2sc(C(C)(C)C)cc2C(=O)N2CCNC(=O)C2(C)C)cc1N1C(=O)CN(C)C1=O", "note": "[1-(5-tert-butyl-3-(2,2-dimethyl-3-oxopiperazine-1-carbonyl)thiophen-2-yl)-3-(4-methyl-3-(3-methyl-2,5-dioxoimidazolidin-1-yl)phenyl)urea]", "IC50": "< 100"}, {"smiles": "Cc1ccc(NC(=O)Nc2sc(C(C)(C)C)cc2C(=O)N2CCNC(=O)C2(C)C)cc1C#CCN1CCOCC1", "note": "[1-(5-tert-butyl-3-(2,2-dimethyl-3-oxopiperazine-1-carbonyl)thiophen-2-yl)-3-(4-methyl-3-(3-morpholinoprop-1-ynyl)phenyl)urea]", "IC50": "< 100"}, {"smiles": "Cc1ccc(NC(=O)Nc2sc(C(C)(C)C)cc2C(=O)N2CCNC(=O)C2(C)C)cc1-c1ccc(N2CCN(C)CC2)cn1", "note": "[1-(5-tert-butyl-3-(2,2-dimethyl-3-oxopiperazine-1-carbonyl)thiophen-2-yl)-3-(4-methyl-3-(5-(4-methylpiperazin-1-yl)pyridin-2-yl)phenyl)urea]", "IC50": "< 100"}, {"smiles": "Cc1ccc(NC(=O)Nc2sc(C(C)(C)C)cc2C(=O)N2CCNC(=O)C2(C)C)cc1-c1ccc(CN2CCOCC2)cn1", "note": "[1-(5-tert-butyl-3-(2,2-dimethyl-3-oxopiperazine-1-carbonyl)thiophen-2-yl)-3-(4-methyl-3-(5-(morpholinomethyl)pyridin-2-yl)phenyl)urea]", "IC50": "< 100"}, {"smiles": "Cc1ccc(NC(=O)Nc2sc(C(C)(C)C)cc2C(=O)N2CCNC(=O)C2(C)C)cc1-c1ccc(N2CCOCC2)cn1", "note": "[1-(5-tert-butyl-3-(2,2-dimethyl-3-oxopiperazine-1-carbonyl)thiophen-2-yl)-3-(4-methyl-3-(5-morpholinopyridin-2-yl)phenyl)urea]", "IC50": "< 100"}, {"smiles": "Cc1ccc(NC(=O)Nc2sc(C(C)(C)C)cc2C(=O)N2CCNC(=O)C2(C)C)cc1-c1ccc(OCCN2CCNCC2)nc1", "note": "[1-(5-tert-butyl-3-(2,2-dimethyl-3-oxopiperazine-1-carbonyl)thiophen-2-yl)-3-(4-methyl-3-(6-(2-(piperazin-1-yl)ethoxy)pyridin-3-yl)phenyl)urea]", "IC50": "< 100"}]}]}
